Reference: patent US20240109903A1, “SUBSTITUTED HETEROCYCLES FOR TREATING CANCER” (Northwestern University, priority 2022, published 2024)
Like-named read-outs stand apart in the source and are kept apart here.

System: MV-4-11 acute myeloid leukemia cells
Test: CellTiter-Glo 2.0 cell viability, MV-4-11
Assay type: cell-based
Details: Homo sapiens
Method: 2019 October; 94(4): 1813-1823.
Cell viability was assessed using the CellTiter-Glo 2.0 assay from Promega, which yields a signal proportional to the amount of ATP present in a cell population. Compounds were first dispensed into empty 96-well flat-bottom tissue culture-treated plates (Corning) using an Echo550. MV4-1 cells were diluted to a density of 0.1 million cells per ml, pipetted onto the compounds at a density of 1,000 cells per well for U937 and 3,000 cells per well for MV4-11, mixed, and incubated for 3 days at 37° C. with 5% C02. After incubating, 5 μl of cells from each well were added to 5 μl of CellTiter-Glo 2.0 reagent in a384-well white ProxiPlate (PerkinElmer), incubated for 20 minutes at ambient temperature, and luminescence was analyzed on an EnSpire plate reader. Graphing and regression analysis was performed in Graphpad Prism.

[1] = MV4-11, 72 h, MV-4-11 cells, 3 days, CellTiter-Glo 2.0, read-out: IC50 (uM) [Cell Type: MV-4-11]
[2] = MV4-11, bound stated in text, read-out: IC50 against MV-4-11 acute myeloid leukemia cells

IC50 [1] [µM]	IC50 [2] [µM]	Structure (SMILES)
2.88	–	O=S1(=O)CCC(Cn2c(C(F)(F)F)cc3c(Cl)ncnc32)CC1 [NUCC-0226668]
1.13	< 2	Fc1ccc(Cn2c(C(F)(F)F)cc3c(Cl)ncnc32)cc1 [NUCC-0226686]
2.09	–	CN(C)CCn1c(C(F)(F)F)cc2c(Cl)ncnc21 [NUCC-0226666]
3.98	–	FC(F)(F)c1cc2c(Cl)ncnc2n1CCn1cccn1 [NUCC-0226685]
0.773	< 2	FC(F)(F)c1cc2c(Cl)ncnc2n1CCC1CCNCC1 [NUCC-0226692]
0.94	< 2	Cc1n[nH]c(C)c1CCn1c(C(F)(F)F)cc2c(Cl)ncnc21 [NUCC-0226684]
2.51	–	CC(C)(C)OC(=O)N1CCC(Cn2c(C(F)(F)F)cc3c(Cl)ncnc32)CC1 [NUCC-0226675, tert-butyl 4-((4-chloro-6-(trifluoromethyl)-7H-pyrrolo[2,3-d]pyrimidin-7-yl)methyl)piperidine-1-carboxylate]
1.23	< 2	OCCOCCn1c(C(F)(F)F)cc2c(Cl)ncnc21 [NUCC-0226665]
1.3	< 2	CC(C)(C)OC(=O)N1CCC(CCn2c(C(F)(F)F)cc3c(Cl)ncnc32)CC1 [NUCC-0226678]
1.02	< 2	CC(C)(C)OC(=O)N1CC(Cn2c(C(F)(F)F)cc3c(Cl)ncnc32)C1 [NUCC-0226669]
> 20	–	Oc1ncnc2c1cc(C(F)(F)F)n2CC1CCNCC1 [NUCC-0226688]
1.08	< 2	COc1ccc(Cn2c(C(F)(F)F)cc3c(Cl)ncnc32)cn1 [NUCC-0226697]
1.12	< 2	FC(F)(F)c1cc2c(Cl)ncnc2n1CC1CNC1 [NUCC-0226670]
0.23	< 2	CC(C)(O)CCn1c(C(F)(F)F)cc2c(Cl)ncnc21 [NUCC-0226440]
2.68	–	FC(F)(F)c1cc2c(Cl)ncnc2n1CC1CCOCC1 [NUCC-0226673]
0.11	< 2	O=C1CCCN1CCn1c(C(F)(F)F)cc2c(Cl)ncnc21 [NUCC-0226439]
0.562	< 2	FC(F)(F)c1cc2c(Cl)ncnc2n1Cc1cccnc1 [NUCC-0226690]
1.32	< 2	FC(F)(F)c1cc2c(Cl)ncnc2n1Cc1ccncc1 [NUCC-0226691]
1.6	< 2	NC(=O)N1CCC(Cn2c(C(F)(F)F)cc3c(Cl)ncnc32)CC1 [NUCC-0226677]
2.01	–	O=c1cc(Cn2c(C(F)(F)F)cc3c(Cl)ncnc32)cc[nH]1 [NUCC-0226693]
> 20	–	N=C(N)N1CC(Cn2c(C(F)(F)F)cc3c(Cl)ncnc32)C1 [NUCC-0226671]
0.871	< 2	FC(F)(F)CN1CC(Cn2c(C(F)(F)F)cc3c(Cl)ncnc32)C1 [NUCC-0226672]
2.24	–	FC(F)(F)c1cc2c(Cl)ncnc2n1CCN1CCNCC1 [NUCC-0226682]
> 20	–	Cc1ncnc2c1cc(C(F)(F)F)n2CC1CCNCC1 [NUCC-0226696]
> 20	–	Cc1cc2c(Cl)ncnc2n1CC1CCNCC1 [NUCC-0226699]
> 20	–	CC(=O)N1CCC(Cn2c(C(F)(F)F)cc3c(Cl)ncnc32)CC1 [NUCC-0226676]
0.949	< 2	CC(C)(C)OC(=O)N1CCN(CCn2c(C(F)(F)F)cc3c(Cl)ncnc32)CC1 [NUCC-0226681]
1.43	< 2	FC(F)(F)c1cc2c(Cl)ncnc2n1CCN1CCCC1 [NUCC-0226667]
> 20	–	FC(F)(F)c1cc2cncnc2n1CC1CCNCC1 [NUCC-0226687]
0.919	< 2	FC(F)(F)CN1CCC(Cn2c(C(F)(F)F)cc3c(Cl)ncnc32)CC1 [NUCC-0226701]
